Our source for the IC50 and AUC(0-inf) values is patent US10004740B2, “Prodrugs of HIV reverse transcriptase inhibitors” (Merck Sharp & Dohme Corp., priority 2014, dated 2018).

Each structure is given as a SMILES string.

Data set [1] concerns the target T1, HIV-1 RT wild-type enzyme (Human immunodeficiency virus type 1 group M subtype B, UniProt P04585).
T1 construct: The HIV-1 RT wild-type enzyme (final concentration of 83 pM)
In words: Determination of HIV-1 reverse transcriptase inhibitory activity (RT polymerase assay, electrochemiluminescence). It is filed as biochemical. The source says: Determination of HIV-1 Reverse Transcriptase Inhibitory Activity
The heterodimeric nucleic acid substrate used in the HIV-1 RT polymerase reactions was generated by annealing the DNA primer, biotinylated pD500 (Sigma Aldrich, USA, 5′-biotin-ttg aaa tga ctg cgg tac ggc-3′), (SEQ ID NO: 1) to the nucleotide RNA template t500 (derived from hepatitis C virus [HCV] sequence, IBA, Germany, 5′-[…]-3′), (SEQ ID NO: 2). The HIV-1 RT wild-type enzyme (final concentration of 83 pM) was combined with an inhibitor or dimethyl sulfoxide (DMSO, 10% in the final reaction mixture) in assay buffer (62.5 mM Tris-HCl [pH 7.8], 1.25 mM dithiothreitol, 7.5 mM MgCl2, 100 mM KCl, 0.03% CHAPS, and 125 μM EGTA). The mixture was then preincubated on an orbital shaker for 30 min at room temperature in microtiter plates (Costar 3365, Corning, USA). A polymerization reaction was initiated by the addition of RNA template/pD500 DNA primer hybrid (16.6 nM final of RNA/DNA hybrid) and dNTPs (2 μM dATP, dGTP, dCTP and 66.6 nM Ru-dUTP (Meso Scale Discovery, USA)). Plate was sealed and incubated for 5-10 min at room temperature on an orbital shaker. Plate was then incubated for 90 min at 37° C. and reactions quenched with 60 μl quenching buffer (50 mM EDTA, 0.7% BSA, 0.7% Tween-20, 0.017% sodium azide in PBS). The resulting solution was incubated at room temperature for an additional 5 min and then 50 μL was transferred to pre-blocked Avidin plates (L15AA, Meso Scale Discovery). Each well of Avidin plate was blocked for 1 h at room temperature with 100 μL 5% BSA in PBS. Blocking solution was removed by tapping vigorously on filter paper to remove all excess liquid. Reaction on pre-blocked avidin plate proceeded for 60 min at room temperature and then contents removed by tapping vigorously on filter paper to remove all excess liquid. After washing plate 3 times with 150 μL 1×PBS and blotting dry between cycles, 150 μL 1× Read Buffer T (4× Read Buffer T, Meso Scale Discovery) was added and incubated for 5 min at room temperature before counting on a Sector Imager […] (Meso Scale Discovery). Titration curves and IC50 values were calculated using a four parameter logistic fit according to standard procedures. Briefly, % Inhibition=100×((sample raw value)−(mean value of the low control or 0% inhibition))/((mean value of wells representing 100% inhibition)−(mean value of 0% inhibition)). In this assay, low control wells contain DMSO (0% inhibition) and 100% inhibition wells contain 1 μM efavirenz.

A short description of data set [2]: Pharmacokinetic studies in rats, oral gavage, plasma LC-MS/MS. It is filed as in vivo. To be noted: male, Wistar-Hannover; rat, 5 mg/kg PO, 40% PEG400/10% Tween-80/50% water; plasma concentration of Parent after dosing the Parent compound. On the procedure: All animal studies were carried out under Good Laboratory Practice regulations for nonclinical laboratory studies. All animal housing and care procedures were in compliance with the Federal Animal Welfare Act and the Institute for Laboratory Animal Resources. All procedures carried out on the animals were reviewed and approved by the Institutional Animal Care and Use Committee. The animal facility was fully accredited with the Association for Assessment and Accreditation of Laboratory Animal Care International.
Two or three male Wistar-Hannover rats weighing 250 to 350 grams with vendor-placed carotid artery catheters were obtained from Charles River (Raleigh, N.C., U.S.A.). Animals were acclimated on a 12-hour light:dark cycle for a minimum of three days in ventilated plastic cages with food and water ad libitum. Blood samples were automatically collected using the Instech Automated Blood sampler (ABS, Plymouth Meeting, Pa.) at designated intervals up to 24 hr and were manually collected post 24 hr.
Animals were fasted overnight before either the Parent compounds of Examples 1-8 (Formula I′) or compounds of Examples 1 to 8 (Formula I) were administered to rats via an oral gavage at the doses and in vehicles specified in Table 3. The animals were allowed access to water ad libitum, while food was returned 4 hours after dosing.
Blood was drawn from catheters placed in the carotid […] at pre-dose, and 0.25, 0.5, 1, 2, 4, 8, 12, 18, 24, 30, and 48 hr after dosing for all compounds and additionally at 72 hr for compounds of example 1, 3, 4, 5, and 7. The plasma was separated by centrifugation (2 minutes at 10000 rpm) and stored at −70° C. until further analysis.
The quantitative analysis of the compounds was performed using a liquid chromatography and tandem mass spectrometry method (LC-MS/MS). The plasma samples were stabilized as needed prior to extraction. Fifty microliter of each unknown together with the standards and quality control samples were extracted using an automated protein precipitation procedure on a Hamilton workstation. The extract was centrifuged and the supernatant was transferred for analysis. The separation was enabled by a Thermo Aria LX-2 LC system on a reversed phase column e g Waters XSelect HSS T3 XP (50×2.1 mm×2.5 u) or Phenomenex Beta Test Column (50×2.1 mm). The compounds were detected using selected reaction monitoring (SRM) methods by an AB Sciex API5000 mass spectrometer in the positive or negative ionization mode. In addition, chromatographic peaks for Parent compounds of Examples 1-8 (Formula I′) and compounds of Examples 1 to 8 (Formula I) were resolved chromatographically with baseline to baseline separation.
Pharmacokinetic parameters were obtained using noncompartmental methods (Watson®). The area under the plasma concentration-time curve (AUC0-t) was calculated from the first time point (0 minutes) up to the last time point with measurable drug concentration (i.e., concentration of Parent (Formula I′ compound) resulting after administration of each of the Parent and Example compounds) using the linear trapezoidal or linear/log-linear trapezoidal rule. The remaining area under the plasma concentration-time curve (AUCt-∞) was estimated by dividing the observed concentration at the last time point by the elimination rate constant. This value was added to AUC0-t to estimate the AUC0-∞. The maximum plasma concentration (Cmax) and the time at which maximum concentration occurred (Tmax) were obtained by inspection of the plasma concentration-time data.
Table 3 provides AUC values obtained in these studies. In Table 3, the Parent of each Example number refers to the Parent counterpart compound of said Example number compound wherein R^4 is replaced with —H.

The molecule `N#Cc1cc(Cl)cc(Oc2c(C(F)(F)F)ncn(Cc3cc(-c4ccc(F)cc4)c(=O)[nH]n3)c2=O)c1` [Parent of Ex. 7, 3-chloro-5-((1-((5-(4-fluorophenyl)-6-oxo-1,6-dihydropyridazin-3-yl)methyl)-6-oxo-4-(trifluoromethyl)-1,6-dihydropyrimidin-5-yl)oxy)benzonitrile] came in with an IC50 in data set [1] of 3.7 nM. Moreover, in data set [2], the AUC(0-inf) is 8.2 µM·h.
`N#Cc1cc(Cl)cc(Oc2c(C(F)(F)F)ncn(Cc3cc(C(F)F)n[nH]c3=O)c2=O)c1` [Parent of Ex. 4, 3-chloro-5-((1-((6-(difluoromethyl)-3-oxo-2,3-dihydropyridazin-4-yl)methyl)-6-oxo-4-(trifluoromethyl)-1,6-dihydropyrimidin-5-yl)oxy)benzonitrile]: in data set [1], the IC50 was 3.2 nM. For the same molecule, the AUC(0-inf) in data set [2] worked out at 21 µM·h.
In data set [1], `N#Cc1cc(Cl)cc(Oc2c(C(F)(F)F)ncn(Cc3cc(Cl)n[nH]c3=O)c2=O)c1` [Parent of Ex. 3, 3-chloro-5-((1-((6-chloro-3-oxo-2,3-dihydropyridazin-4-yl)methyl)-6-oxo-4-(trifluoromethyl)-1,6-dihydropyrimidin-5-yl)oxy)benzonitrile] returned an IC50 of 2.7 nM. In addition, the AUC(0-inf) in data set [2] turned out to be 10.2 µM·h.
In data set [1], `N#Cc1cc(Cl)cc(Oc2c(C(F)F)ncn(Cc3cc(Cl)n[nH]c3=O)c2=O)c1` [Parent of Ex. 2, 3-chloro-5-((1-((6-chloro-3-oxo-2,3-dihydropyridazin-4-yl)methyl)-4-(difluoromethyl)-6-oxo-1,6-dihydropyrimidin-5-yl)oxy)benzonitrile] gave an IC50 of 3.3 nM. Besides, in data set [2], the AUC(0-inf) turned out to be 15.3 µM·h.
In data set [1], `CC(F)(F)c1cc(Cn2cnc(C(C)(F)F)c(Oc3cc(Cl)cc(C#N)c3)c2=O)c(=O)[nH]n1` [Parent of Ex. 8, 3-chloro-5-((4-(1,1-difluoroethyl)-1-((6-(1,1-difluoroethyl)-3-oxo-2,3-dihydropyridazin-4-yl)methyl)-6-oxo-1,6-dihydropyrimidin-5-yl)oxy)benzonitrile] gave an IC50 of 4.7 nM. The total exposure AUC(0-inf) in data set [2] is 13.9 µM·h.
For `N#Cc1cc(Cl)cc(Oc2c(C(F)(F)F)ncn(Cc3cc(C(F)(F)F)c(=O)[nH]n3)c2=O)c1` [Parent of Ex. 6, 3-chloro-5-((6-oxo-1-((6-oxo-5-(trifluoromethyl)-1,6-dihydropyridazin-3-yl)methyl)-4-(trifluoromethyl)-1,6-dihydropyrimidin-5-yl)oxy)benzonitrile], in data set [1], half-maximal inhibition (IC50) was put at 7.9 nM. Also, the AUC(0-inf) in data set [2] worked out at 2 µM·h.
On the same counts, the results for `CC(F)(F)c1cc(Cn2cnc(C(F)(F)F)c(Oc3cc(Cl)cc(C#N)c3)c2=O)c(=O)[nH]n1` [Parent of Ex. 5, 3-chloro-5-((1-((6-(1,1-difluoroethyl)-3-oxo-2,3-dihydropyridazin-4-yl)methyl)-6-oxo-4-(trifluoromethyl)-1,6-dihydropyrimidin-5-yl)oxy)benzonitrile] are 4.6 nM and 29.1 µM·h.
